# Source: PubChem BioAssay AID330 (DTP/NCI, 2004)
# Several values for one entry are separate records, joined by “and”; a condition that tells them apart may be missing. Equal values may be shown once. Inconclusive results and toxic doses are left out. Peptide text beside a SMILES is read from it.
# Test system: P388 leukemia ip, CD2F1 mice, survival T/C
# Experiment: NCI In Vivo Anticancer Drug Screen. Data for tumor model P388 Leukemia (intraperitoneal) in CD2F1 (CDF1) mice
# Details: endpoint: median survival time, higher = longer survival
# Procedure, shortened: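 Mice carrying the transplanted tumor received test compound or vehicle. Survival was recorded in each group, and the value is the treated-group measurement divided by that of the vehicle-treated control group.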
# [1] = dose: 50.0 mg/kg/injection, schedule: Q01DX009 (ip), vehicle: saline
# [2] = dose: 50.0 mg/kg/injection, schedule: Q01DX005 (ip), vehicle: saline with Tween-80
# [3] = dose: 100.0 mg/kg/injection, schedule: Q01DX005 (ip), vehicle: saline with Tween-80
# [4] = dose: 200.0 mg/kg/injection, schedule: Q01DX005 (ip), vehicle: saline with Tween-80
# [5] = dose: 50.0 mg/kg/injection, schedule: Q01DX005 (ip), vehicle: Klucel (hydroxypropylcellulose) (HPC)
# [6] = dose: 100.0 mg/kg/injection, schedule: Q01DX005 (ip), vehicle: Klucel (hydroxypropylcellulose) (HPC)
# [7] = dose: 200.0 mg/kg/injection, schedule: Q01DX005 (ip), vehicle: Klucel (hydroxypropylcellulose) (HPC)
smiles,measurement,setting,value
COC(=O)C(Cl)Cc1cnc[nH]1 (stereo not given),T/C,[1],92 % of control
same,T/C,"dose: 100.0 mg/kg/injection, schedule: Q01DX009 (ip), vehicle: saline",98 % of control
same,T/C,"dose: 200.0 mg/kg/injection, schedule: Q01DX009 (ip), vehicle: saline",92 % of control
CCOP(=O)(N1CC1(C)C)N1CC1(C)C (stereo not given),T/C,"dose: 5.0 mg/kg/injection, schedule: Q01DX009 (ip), vehicle: saline",109 % of control
same,T/C,"dose: 20.0 mg/kg/injection, schedule: Q01DX009 (ip), vehicle: saline",159 % of control
same,T/C,"dose: 30.0 mg/kg/injection, schedule: Q01DX009 (ip), vehicle: saline",194 % of control
same,T/C,[1],252 % of control
CN(C)C1CS(=O)(=O)OC2=C1COCC2 (stereo not given),T/C,"dose: 60.0 mg/kg/injection, schedule: Q01DX005 (ip), vehicle: saline with Tween-80",101 % of control
same,T/C,"dose: 120.0 mg/kg/injection, schedule: Q01DX005 (ip), vehicle: saline with Tween-80",105 % of control
Cc1ccc([N+](=O)[O-])cc1O,T/C,"dose: 25.0 mg/kg/injection, schedule: Q01DX009 (ip), vehicle: other",95 % of control
same,T/C,"dose: 50.0 mg/kg/injection, schedule: Q01DX009 (ip), vehicle: other",100 % of control
same,T/C,"dose: 100.0 mg/kg/injection, schedule: Q01DX009 (ip), vehicle: other",110 % of control
O=C(c1ccccc1)c1ccc2n[se]nc2c1,T/C,"dose: 3.75 mg/kg/injection, schedule: Q01DX005 (ip), vehicle: saline with Tween-80",100 % of control
same,T/C,"dose: 7.5 mg/kg/injection, schedule: Q01DX005 (ip), vehicle: saline with Tween-80",87 % of control
same,T/C,"dose: 15.0 mg/kg/injection, schedule: Q01DX005 (ip), vehicle: saline with Tween-80",97 % of control
Cc1nc(N)nc(N)c1-c1ccc(N)cc1,T/C,"dose: 12.5 mg/kg/injection, schedule: Q01DX005 (ip), vehicle: saline with Tween-80",105 % of control
same,T/C,"dose: 25.0 mg/kg/injection, schedule: Q01DX005 (ip), vehicle: saline with Tween-80",103 % of control
same,T/C,[2],98 % of control and 105 % of control
O=[N+]([O-])c1nccn1CC(O)CCN1CCOCC1 (stereo not given),T/C,"dose: 25.0 mg/kg/injection, schedule: Q01DX005 (ip), vehicle: saline",110 % of control
same,T/C,"dose: 50.0 mg/kg/injection, schedule: Q01DX005 (ip), vehicle: saline",102 % of control
same,T/C,"dose: 100.0 mg/kg/injection, schedule: Q01DX005 (ip), vehicle: saline",102 % of control
same,T/C,"dose: 200.0 mg/kg/injection, schedule: Q01DX005 (ip), vehicle: saline",106 % of control
same,T/C,"dose: 400.0 mg/kg/injection, schedule: Q01DX005 (ip), vehicle: saline",101 % of control
CCC(C)C(NC(=O)C(N)CC(C)C)C(=O)O (stereo not drawn) (H-Leu-Ile-OH; configuration not given here),T/C,"dose: 60.0 mg/kg/injection, schedule: Q01DX005 (ip), vehicle: saline",108 % of control
same,T/C,"dose: 120.0 mg/kg/injection, schedule: Q01DX005 (ip), vehicle: saline",108 % of control
same,T/C,"dose: 240.0 mg/kg/injection, schedule: Q01DX005 (ip), vehicle: saline",104 % of control
COc1cc([N+](=O)[O-])cc2c1OC1(SC(C)(C)C(C)CN1C)C(C)=C2 (stereo not given),T/C,"dose: 100.0 mg/kg/injection, schedule: Q04DX003 (ip), vehicle: saline with Tween-80",105 % of control
same,T/C,"dose: 200.0 mg/kg/injection, schedule: Q04DX003 (ip), vehicle: saline with Tween-80",100 % of control
same,T/C,"dose: 400.0 mg/kg/injection, schedule: Q04DX003 (ip), vehicle: saline with Tween-80",95 % of control
CNC(C)(C(=O)O)C(=O)Nc1ccccc1 (stereo not given),T/C,"dose: 100.0 mg/kg/injection, schedule: Q01DX001 (ip), vehicle: saline",112 % of control
same,T/C,"dose: 200.0 mg/kg/injection, schedule: Q01DX001 (ip), vehicle: saline",123 % of control
C=CC(=O)C1OC2OC(C)(C)OC2C2OC(C)(C)OC12 (stereo not given),T/C,[2],93 % of control
same,T/C,[3],97 % of control
same,T/C,[4],98 % of control
O=C(Nc1ccc(OCCCCCOc2ccccc2)cc1)C(F)(F)F,T/C,"dose: 50.0 mg/kg/injection, schedule: Q01DX009 (ip), vehicle: saline with Tween-80",100 % of control
same,T/C,"dose: 100.0 mg/kg/injection, schedule: Q01DX009 (ip), vehicle: saline with Tween-80",116 % of control
same,T/C,"dose: 200.0 mg/kg/injection, schedule: Q01DX009 (ip), vehicle: saline with Tween-80",114 % of control
CCC1(C(C)C)NC(=O)NC1=O (stereo not given),T/C,[5],106 % of control
same,T/C,[6],104 % of control
same,T/C,[7],106 % of control
Cc1ccc(S(=O)(=O)N(CCc2ccc(Cl)cc2)S(=O)(=O)c2ccc(C)cc2)cc1,T/C,"dose: 50.0 mg/kg/injection, schedule: Q01DX009 (ip), vehicle: Klucel (hydroxypropylcellulose) (HPC)",109 % of control
same,T/C,"dose: 100.0 mg/kg/injection, schedule: Q01DX009 (ip), vehicle: Klucel (hydroxypropylcellulose) (HPC)",94 % of control
same,T/C,"dose: 200.0 mg/kg/injection, schedule: Q01DX009 (ip), vehicle: Klucel (hydroxypropylcellulose) (HPC)",93 % of control
C=C1C(=O)OC2CC1C(OC(C)=O)C/C(C)=C/CC/C(C)=C\CCC2(C)O (stereo not given),T/C,"dose: 5.0 mg/kg/injection, schedule: Q01DX009 (ip), vehicle: Klucel (hydroxypropylcellulose) (HPC)",107 % of control
same,T/C,"dose: 8.0 mg/kg/injection, schedule: Q01DX009 (ip), vehicle: Klucel (hydroxypropylcellulose) (HPC)",103 % of control
same,T/C,"dose: 10.0 mg/kg/injection, schedule: Q01DX009 (ip), vehicle: Klucel (hydroxypropylcellulose) (HPC)",109 % of control
same,T/C,"dose: 16.0 mg/kg/injection, schedule: Q01DX009 (ip), vehicle: Klucel (hydroxypropylcellulose) (HPC)",95 % of control
same,T/C,"dose: 20.0 mg/kg/injection, schedule: Q01DX009 (ip), vehicle: Klucel (hydroxypropylcellulose) (HPC)",116 % of control
same,T/C,"dose: 25.0 mg/kg/injection, schedule: Q04DX002 (ip), vehicle: saline",100 % of control
same,T/C,"dose: 32.0 mg/kg/injection, schedule: Q01DX009 (ip), vehicle: Klucel (hydroxypropylcellulose) (HPC)",106 % of control
same,T/C,"dose: 40.0 mg/kg/injection, schedule: Q01DX009 (ip), vehicle: Klucel (hydroxypropylcellulose) (HPC)",117 % of control
same,T/C,"dose: 50.0 mg/kg/injection, schedule: Q04DX002 (ip), vehicle: saline",94 % of control
same,T/C,"dose: 64.0 mg/kg/injection, schedule: Q01DX009 (ip), vehicle: Klucel (hydroxypropylcellulose) (HPC)",106 % of control
same,T/C,"dose: 100.0 mg/kg/injection, schedule: Q04DX002 (ip), vehicle: saline",103 % of control
same,T/C,"dose: 200.0 mg/kg/injection, schedule: Q04DX002 (ip), vehicle: saline",103 % of control
CC1(C)N=C(N)N=C(N)N1c1cccc(CCCCc2ccc(Cl)c(S(=O)(=O)F)c2)c1,T/C,"dose: 9.33 mg/kg/injection, schedule: Q01DX009 (ip), vehicle: saline",118 % of control
O=C(O)[C@H](Cc1ccccc1)N1C(=O)c2ccccc2C1=O,T/C,"dose: 50.0 mg/kg/injection, schedule: Q01DX005 (ip), vehicle: DMSO",105 % of control
same,T/C,[5],109 % of control
same,T/C,"dose: 100.0 mg/kg/injection, schedule: Q01DX005 (ip), vehicle: DMSO",100 % of control
same,T/C,[6],105 % of control
same,T/C,[3],99 % of control
same,T/C,"dose: 125.0 mg/kg/injection, schedule: Q01DX001 (ip), vehicle: saline with Tween-80",102 % of control
same,T/C,"dose: 200.0 mg/kg/injection, schedule: Q01DX005 (ip), vehicle: DMSO",100 % of control
same,T/C,[7],101 % of control
same,T/C,[4],107 % of control
same,T/C,"dose: 250.0 mg/kg/injection, schedule: Q01DX001 (ip), vehicle: saline with Tween-80",95 % of control
same,T/C,"dose: 400.0 mg/kg/injection, schedule: Q01DX005 (ip), vehicle: DMSO",100 % of control
same,T/C,"dose: 400.0 mg/kg/injection, schedule: Q01DX005 (ip), vehicle: saline with Tween-80",105 % of control
same,T/C,"dose: 500.0 mg/kg/injection, schedule: Q01DX001 (ip), vehicle: saline with Tween-80",100 % of control and 105 % of control
same,T/C,"dose: 800.0 mg/kg/injection, schedule: Q01DX005 (ip), vehicle: DMSO",107 % of control
N#CCc1c(Cl)n(-c2ccccc2)c2ccccc12,T/C,"dose: 100.0 mg/kg/injection, schedule: Q01DX001 (ip), vehicle: Klucel (hydroxypropylcellulose) (HPC)",101 % of control
same,T/C,"dose: 200.0 mg/kg/injection, schedule: Q01DX001 (ip), vehicle: Klucel (hydroxypropylcellulose) (HPC)",93 % of control
same,T/C,"dose: 400.0 mg/kg/injection, schedule: Q01DX001 (ip), vehicle: Klucel (hydroxypropylcellulose) (HPC)",88 % of control
COC(=O)c1nc(N)nc(C(=O)OC)c1C(=O)c1cccnc1,T/C,"dose: 60.0 mg/kg/injection, schedule: Q01DX005 (ip), vehicle: Klucel (hydroxypropylcellulose) (HPC)",95 % of control
same,T/C,"dose: 120.0 mg/kg/injection, schedule: Q01DX005 (ip), vehicle: Klucel (hydroxypropylcellulose) (HPC)",93 % of control
